Source: the supplement of paper PMC13207355

What was measured:
Details in all cases: exposure time: 72 h
E13 [1] = patient-derived glioblastoma stem cells of classical subtype; assay: surviving fraction (nuclei count normalised to DMSO); higher = more cells surviving (less toxic)
E21 [2] = patient-derived glioblastoma stem cells of mesenchymal subtype; assay: as above
E28 [3] = patient-derived glioblastoma stem cells of classical subtype; assay: as above
E31 [4] = patient-derived glioblastoma stem cells of proneural subtype; assay: as above
E34 [5] = patient-derived glioblastoma stem cells of proneural subtype; assay: as above
E57 [6] = patient-derived glioblastoma stem cells of mesenchymal subtype; assay: as above
FT3469 [7] = normal neural stem cell line; assay: as above
E13 [8] = assay: phenotypic distance (Euclidean, principal components) from DMSO controls (arbitrary units); higher = stronger morphological change
E21 [9] = assay: as above
E28 [10] = assay: as above
E31 [11] = assay: as above
E34 [12] = assay: as above
E57 [13] = assay: as above
FT3469 [14] = assay: as above
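For phenotypic distance (Euclidean, principal components) from DMSO controls in this document: cell Painting imaging in 384-well plates, CellProfiler features reduced to at least 20 principal components, Euclidean distance versus same-plate DMSO vehicle wells (0.1% v/v), median over six images per well.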
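For surviving fraction (nuclei count normalised to DMSO) in this document: nuclei counted by high-content imaging of Hoechst-stained cells in laminin-coated 384-well plates, relative to 0.1% DMSO vehicle wells, with staurosporine as cell-death control.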

CCN1CCN(C(=O)Cc2ccc(Nc3ncc(F)c(Nc4ccc(C(=O)Nc5ccccc5Cl)cc4)n3)cc2)CC1 [Aurora-A Inhibitor I]
Details | phenotypic distance | surviving fraction
E13 [1], 4.1 nM | – | 0.898
E13 [1], 12.3 nM | – | 0.858
E13 [1], 37 nM | – | 0.898
E13 [1], 111.1 nM | – | 0.786
E13 [1], 333.3 nM | – | 0.755
E13 [1], 1000 nM | – | 0.643
E13 [1], 3000 nM | – | 0.588
E13 [8], 4.1 nM | 0.68 | –
E13 [8], 12.3 nM | 0.752 | –
E13 [8], 37 nM | 1.14 | –
E13 [8], 111.1 nM | 1.23 | –
E13 [8], 333.3 nM | 1.57 | –
E13 [8], 1000 nM | 2.01 | –
E13 [8], 3000 nM | 2.52 | –
E21 [2], 4.1 nM | – | 0.962
E21 [2], 12.3 nM | – | 0.968
E21 [2], 37 nM | – | 0.937
E21 [2], 111.1 nM | – | 1.04
E21 [2], 333.3 nM | – | 0.873
E21 [2], 1000 nM | – | 0.369
E21 [2], 3000 nM | – | 0.0545
E21 [9], 4.1 nM | 0.463 | –
E21 [9], 12.3 nM | 0.798 | –
E21 [9], 37 nM | 0.695 | –
E21 [9], 111.1 nM | 0.686 | –
E21 [9], 333.3 nM | 0.809 | –
E21 [9], 1000 nM | 3.84 | –
E21 [9], 3000 nM | 8.57 | –
E28 [3], 4.1 nM | – | 0.826
E28 [3], 12.3 nM | – | 1.04
E28 [3], 37 nM | – | 0.98
E28 [3], 111.1 nM | – | 1.01
E28 [3], 333.3 nM | – | 0.732
E28 [3], 1000 nM | – | 0.295
E28 [3], 3000 nM | – | 0.265
E28 [10], 4.1 nM | 0.837 | –
E28 [10], 12.3 nM | 1.2 | –
E28 [10], 37 nM | 0.715 | –
E28 [10], 111.1 nM | 0.655 | –
E28 [10], 333.3 nM | 1.3 | –
E28 [10], 1000 nM | 5.35 | –
E28 [10], 3000 nM | 7.22 | –
E31 [4], 4.1 nM | – | 0.968
E31 [4], 12.3 nM | – | 0.879
E31 [4], 37 nM | – | 0.989
E31 [4], 111.1 nM | – | 0.819
E31 [4], 333.3 nM | – | 0.602
E31 [4], 1000 nM | – | 0.0846
E31 [4], 3000 nM | – | 0.0618
E31 [11], 4.1 nM | 0.624 | –
E31 [11], 12.3 nM | 0.904 | –
E31 [11], 37 nM | 0.48 | –
E31 [11], 111.1 nM | 0.975 | –
E31 [11], 333.3 nM | 1.09 | –
E31 [11], 1000 nM | 6.37 | –
E31 [11], 3000 nM | 11.8 | –
E34 [5], 4.1 nM | – | 0.935
E34 [5], 12.3 nM | – | 0.848
E34 [5], 37 nM | – | 0.988
E34 [5], 111.1 nM | – | 0.958
E34 [5], 333.3 nM | – | 0.736
E34 [5], 1000 nM | – | 0.635
E34 [5], 3000 nM | – | 0.198
E34 [12], 4.1 nM | 0.739 | –
E34 [12], 12.3 nM | 0.951 | –
E34 [12], 37 nM | 0.479 | –
E34 [12], 111.1 nM | 0.728 | –
E34 [12], 333.3 nM | 0.971 | –
E34 [12], 1000 nM | 1.96 | –
E34 [12], 3000 nM | 9.28 | –
E57 [6], 4.1 nM | – | 0.996
E57 [6], 12.3 nM | – | 0.998
E57 [6], 37 nM | – | 0.968
E57 [6], 111.1 nM | – | 1.03
E57 [6], 333.3 nM | – | 0.905
E57 [6], 1000 nM | – | 0.513
E57 [6], 3000 nM | – | 0.0372
E57 [13], 4.1 nM | 0.556 | –
E57 [13], 12.3 nM | 1.22 | –
E57 [13], 37 nM | 0.495 | –
E57 [13], 111.1 nM | 0.921 | –
E57 [13], 333.3 nM | 1.17 | –
E57 [13], 1000 nM | 3.49 | –
E57 [13], 3000 nM | 11.6 | –
FT3469 [7], 4.1 nM | – | 1.01
FT3469 [7], 12.3 nM | – | 0.895
FT3469 [7], 37 nM | – | 0.866
FT3469 [7], 111.1 nM | – | 0.883
FT3469 [7], 333.3 nM | – | 1.04
FT3469 [7], 1000 nM | – | 0.483
FT3469 [7], 3000 nM | – | 0.394
FT3469 [14], 4.1 nM | 0.518 | –
FT3469 [14], 12.3 nM | 0.954 | –
FT3469 [14], 37 nM | 0.712 | –
FT3469 [14], 111.1 nM | 0.933 | –
FT3469 [14], 333.3 nM | 0.835 | –
FT3469 [14], 1000 nM | 1.89 | –
FT3469 [14], 3000 nM | 13.2 | –

COc1ccc(C(=O)CC(=O)c2ccc(C(C)(C)C)cc2)cc1 [Avobenzone]
Details | phenotypic distance | surviving fraction
E13 [1], 4.1 nM | – | 0.902
E13 [1], 12.3 nM | – | 1.02
E13 [1], 37 nM | – | 1.08
E13 [1], 111.1 nM | – | 0.948
E13 [1], 333.3 nM | – | 1.11
E13 [1], 1000 nM | – | 1.07
E13 [1], 3000 nM | – | 0.8
E13 [8], 4.1 nM | 1.11 | –
E13 [8], 12.3 nM | 0.579 | –
E13 [8], 37 nM | 0.386 | –
E13 [8], 111.1 nM | 0.499 | –
E13 [8], 333.3 nM | 0.627 | –
E13 [8], 1000 nM | 0.606 | –
E13 [8], 3000 nM | 0.743 | –
E21 [2], 4.1 nM | – | 1.1
E21 [2], 12.3 nM | – | 1.17
E21 [2], 37 nM | – | 1.05
E21 [2], 111.1 nM | – | 1.13
E21 [2], 333.3 nM | – | 1.13
E21 [2], 1000 nM | – | 1.07
E21 [2], 3000 nM | – | 0.82
E21 [9], 4.1 nM | 0.845 | –
E21 [9], 12.3 nM | 0.782 | –
E21 [9], 37 nM | 0.67 | –
E21 [9], 111.1 nM | 0.818 | –
E21 [9], 333.3 nM | 0.929 | –
E21 [9], 1000 nM | 0.701 | –
E21 [9], 3000 nM | 1.59 | –
E28 [3], 4.1 nM | – | 1.14
E28 [3], 12.3 nM | – | 1.14
E28 [3], 37 nM | – | 1.14
E28 [3], 111.1 nM | – | 0.988
E28 [3], 333.3 nM | – | 1.06
E28 [3], 1000 nM | – | 1.12
E28 [3], 3000 nM | – | 0.739
E28 [10], 4.1 nM | 1.01 | –
E28 [10], 12.3 nM | 0.675 | –
E28 [10], 37 nM | 0.613 | –
E28 [10], 111.1 nM | 0.631 | –
E28 [10], 333.3 nM | 0.646 | –
E28 [10], 1000 nM | 0.601 | –
E28 [10], 3000 nM | 0.879 | –
E31 [4], 4.1 nM | – | 0.989
E31 [4], 12.3 nM | – | 1.02
E31 [4], 37 nM | – | 1.02
E31 [4], 111.1 nM | – | 0.921
E31 [4], 333.3 nM | – | 0.973
E31 [4], 1000 nM | – | 1.06
E31 [4], 3000 nM | – | 0.941
E31 [11], 4.1 nM | 0.665 | –
E31 [11], 12.3 nM | 0.919 | –
E31 [11], 37 nM | 0.653 | –
E31 [11], 111.1 nM | 0.43 | –
E31 [11], 333.3 nM | 0.486 | –
E31 [11], 1000 nM | 0.737 | –
E31 [11], 3000 nM | 0.899 | –
E34 [5], 4.1 nM | – | 1.08
E34 [5], 12.3 nM | – | 0.923
E34 [5], 37 nM | – | 0.995
E34 [5], 111.1 nM | – | 1.06
E34 [5], 333.3 nM | – | 1.04
E34 [5], 1000 nM | – | 1.03
E34 [5], 3000 nM | – | 0.818
E34 [12], 4.1 nM | 0.805 | –
E34 [12], 12.3 nM | 0.881 | –
E34 [12], 37 nM | 0.524 | –
E34 [12], 111.1 nM | 0.804 | –
E34 [12], 333.3 nM | 0.741 | –
E34 [12], 1000 nM | 0.759 | –
E34 [12], 3000 nM | 1.45 | –
E57 [6], 4.1 nM | – | 1.04
E57 [6], 12.3 nM | – | 1.07
E57 [6], 37 nM | – | 1.02
E57 [6], 111.1 nM | – | 0.975
E57 [6], 333.3 nM | – | 1.12
E57 [6], 1000 nM | – | 1.03
E57 [6], 3000 nM | – | 0.96
E57 [13], 4.1 nM | 0.899 | –
E57 [13], 12.3 nM | 1.11 | –
E57 [13], 37 nM | 0.644 | –
E57 [13], 111.1 nM | 0.447 | –
E57 [13], 333.3 nM | 1.15 | –
E57 [13], 1000 nM | 0.55 | –
E57 [13], 3000 nM | 1.16 | –
FT3469 [7], 4.1 nM | – | 1.08
FT3469 [7], 12.3 nM | – | 1.38
FT3469 [7], 37 nM | – | 1
FT3469 [7], 111.1 nM | – | 1.2
FT3469 [7], 333.3 nM | – | 0.863
FT3469 [7], 1000 nM | – | 1.25
FT3469 [7], 3000 nM | – | 0.973
FT3469 [14], 4.1 nM | 0.579 | –
FT3469 [14], 12.3 nM | 0.768 | –
FT3469 [14], 37 nM | 0.688 | –
FT3469 [14], 111.1 nM | 0.824 | –
FT3469 [14], 333.3 nM | 0.788 | –
FT3469 [14], 1000 nM | 2.5 | –
FT3469 [14], 3000 nM | 0.402 | –
